{"source": "patent US7851474B2", "about": "“Dipiperazinyl ketones and related analogues” (Neurogen Corporation, priority 2005, dated 2010)", "biological_target": "T1, chimeric human H3 receptor (Homo sapiens, UniProt Q9Y5N1, E19D)", "T1 construct": "made in house; host or cells: Sf9 insect cells (baculovirus infection); P2 membrane preparation", "T1 sequence (Q9Y5N1 with tags, fused parts or gaps E19D)": "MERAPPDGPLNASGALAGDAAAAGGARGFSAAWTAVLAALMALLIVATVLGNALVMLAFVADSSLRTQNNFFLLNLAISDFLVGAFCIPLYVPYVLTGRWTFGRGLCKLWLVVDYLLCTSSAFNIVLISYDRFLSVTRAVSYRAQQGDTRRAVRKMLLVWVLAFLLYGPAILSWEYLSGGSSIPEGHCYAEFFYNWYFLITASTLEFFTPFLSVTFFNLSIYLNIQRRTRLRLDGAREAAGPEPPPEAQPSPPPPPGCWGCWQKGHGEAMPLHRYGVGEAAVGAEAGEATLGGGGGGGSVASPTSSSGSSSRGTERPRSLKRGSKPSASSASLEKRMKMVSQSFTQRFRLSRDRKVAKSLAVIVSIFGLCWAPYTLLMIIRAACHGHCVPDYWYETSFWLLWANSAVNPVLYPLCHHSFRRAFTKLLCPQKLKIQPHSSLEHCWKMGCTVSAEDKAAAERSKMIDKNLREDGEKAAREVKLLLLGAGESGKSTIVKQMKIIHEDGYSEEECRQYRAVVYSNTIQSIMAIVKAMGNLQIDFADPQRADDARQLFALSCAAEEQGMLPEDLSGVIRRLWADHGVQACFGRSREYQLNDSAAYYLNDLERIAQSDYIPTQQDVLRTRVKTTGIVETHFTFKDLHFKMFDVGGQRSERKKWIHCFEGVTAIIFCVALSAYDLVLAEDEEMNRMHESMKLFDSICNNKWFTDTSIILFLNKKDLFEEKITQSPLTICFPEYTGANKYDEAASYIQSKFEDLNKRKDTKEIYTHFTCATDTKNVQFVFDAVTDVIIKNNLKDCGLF", "test": "Chimeric human H3 receptor GTP binding assay (agonist-stimulated GTP-gamma35S binding, Example 7)", "format": "biochemical", "outline": "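IC50 values come from non-linear regression of dose-response curves of filter-bound GTP-gamma^35S, counted by scintillation. Membranes were from infected Sf9 cells carrying receptor plus G-protein subunits, 35 μg/tube, with 10 μM GDP present.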", "key": {"[1]": {"conditions": "assay of Example 7, \"*\" in Ki of Table II, read-out: Ki"}, "[2]": {"conditions": "Table II, assay of Example 7, \"*\" in Ki, read-out: Ki"}, "[3]": {"conditions": "Table II, \"*\" in Ki, assay of Example 7, read-out: Ki"}, "[4]": {"conditions": "Table II \"Ki\", symbol \"*\": Ki in the assay of Example 7, read-out: Ki"}, "[5]": {"conditions": "assay of Example 7, symbol * in column headed Ki of Table II, read-out: Ki"}}, "note": "Where two headings read alike, the source gives them in different places."}
{"smiles": "CC(=O)NC1CCN(CC(=O)N2CCN(C3CCCC3)CC2)C1", "note": "(stereo not shown) [Compound 1258, N-{1-[2-(4-cyclopentylpiperazin-1-yl)-2-oxoethyl]pyrrolidin-3-yl}acetamide]", "values": [{"measurement": "Ki", "setting": "[1]", "result": "< 1", "unit": "µM"}]}
{"smiles": "O=C(NC1CCN(CC(=O)N2CCN(C3CCC3)CC2)CC1)c1ccccc1", "note": "[Compound 1225, N-{1-[2-(4-cyclobutylpiperazin-1-yl)-2-oxoethyl]piperidin-4-yl}benzamide]", "values": [{"measurement": "Ki", "setting": "[1]", "result": "< 1", "unit": "µM"}]}
{"smiles": "CC(C)N1CCN(C(=O)CN2CCN(c3ccc(C#N)cc3)CC2)CC1", "note": "[Compound 1149, 4-{4-[2-(4-isopropylpiperazin-1-yl)-2-oxoethyl]piperazin-1-yl}benzonitrile]", "values": [{"measurement": "Ki", "setting": "[1]", "result": "< 1", "unit": "µM"}]}
{"smiles": "CC(C)N(C)C(=O)c1ccc(N2CCN(CC(=O)N3CCN(C4CCC4)CC3)CC2)cc1", "note": "[Compound 1127, 4-{4-[2-(4-cyclobutylpiperazin-1-yl)-2-oxoethyl]piperazin-1-yl}-N-isopropyl-N-methylbenzamide]", "values": [{"measurement": "Ki", "setting": "[2]", "result": "< 1", "unit": "µM"}]}
{"smiles": "O=C(CN1CCN(c2ccc(C(=O)N3CCSCC3)cn2)CC1)N1CCN(C2CCC2)CC1", "note": "[Compound 1101]", "values": [{"measurement": "Ki", "setting": "[2]", "result": "< 1", "unit": "µM"}]}
{"smiles": "O=C(CN1CCN(c2ccc(-c3ccccc3C(F)(F)F)cc2)CC1)N1CCN(C2CCC2)CC1", "note": "[Compound 580, 1-cyclobutyl-4-({4-[2′-(trifluoromethyl)biphenyl-4-yl]piperazin-1-yl}acetyl)piperazine]", "values": [{"measurement": "Ki", "setting": "[3]", "result": "< 1", "unit": "µM"}]}
{"smiles": "O=C1CCc2cc(N3CCC(C(=O)OCC(=O)N4CCN(C5CCC5)CC4)CC3)ccc21", "note": "[Compound 905, 2-(4-cyclobutylpiperazin-1-yl)-2-oxoethyl 1-(1-oxo-2,3-dihydro-1H-inden-5-yl)piperidine-4-carboxylate]", "values": [{"measurement": "Ki", "setting": "[4]", "result": "< 1", "unit": "µM"}]}
{"smiles": "CCOc1ccccc1-c1cnc(N2CCN(CC(=O)N3CCN(C4CCC4)CC3)CC2)cn1", "note": "[Compound 955, 2-{4-[2-(4-cyclobutylpiperazin-1-yl)-2-oxoethyl]piperazin-1-yl}-5-(2-ethoxyphenyl)pyrazine]", "values": [{"measurement": "Ki", "setting": "[2]", "result": "< 1", "unit": "µM"}]}
{"smiles": "CC(C)CC(=O)NC1CCN(CC(=O)N2CCN(C3CCC3)CC2)C1", "note": "(stereo not shown) [Compound 1246, N-{1-[2-(4-cyclobutylpiperazin-1-yl)-2-oxoethyl]pyrrolidin-3-yl}-3-methylbutanamide]", "values": [{"measurement": "Ki", "setting": "[1]", "result": "< 1", "unit": "µM"}]}
{"smiles": "O=C(NC1CC1)c1cccc(N2CCN(CC(=O)N3CCN(C4CCC4)CC3)CC2)c1", "note": "[Compound 1078, 3-{4-[2-(4-cyclobutylpiperazin-1-yl)-2-oxoethyl]piperazin-1-yl}-N-cyclopropylbenzamide]", "values": [{"measurement": "Ki", "setting": "[2]", "result": "< 1", "unit": "µM"}]}
{"smiles": "O=C(CN1CCN(c2ccc(-c3ccc(Cl)cc3)nn2)CC1)N1CCN(C2CCC2)CC1", "note": "[Compound 991, 3-(4-chlorophenyl)-6-{4-[2-(4-cyclobutylpiperazin-1-yl)-2-oxoethyl]piperazin-1-yl}pyridazine]", "values": [{"measurement": "Ki", "setting": "[2]", "result": "< 1", "unit": "µM"}]}
{"smiles": "COc1ccc(Cl)cc1-c1ccc(N2CCN(CC(=O)N3CCN(C4CCC4)CC3)CC2)nn1", "note": "[Compound 995, 3-(5-chloro-2-methoxyphenyl)-6-{4-[2-(4-cyclobutylpiperazin-1-yl)-2-oxoethyl]piperazin-1-yl}pyridazine]", "values": [{"measurement": "Ki", "setting": "[2]", "result": "< 1", "unit": "µM"}]}
{"smiles": "O=C(CN1CCN(c2ccc(-c3cccc(OC(F)(F)F)c3)cc2)CC1)N1CCN(C2CCC2)CC1", "note": "[Compound 587, 1-cyclobutyl-4-({4-[3′-(trifluoromethoxy)biphenyl-4-yl]piperazin-1-yl}acetyl)piperazine]", "values": [{"measurement": "Ki", "setting": "[3]", "result": "< 1", "unit": "µM"}]}
{"smiles": "CC(C)(C)c1ccc(-c2cnc(N3CCN(CC(=O)N4CCN(C5CCC5)CC4)CC3)cn2)cc1", "note": "[Compound 910, 2-(4-tert-butylphenyl)-5-{4-[2-(4-cyclobutylpiperazin-1-yl)-2-oxoethyl]piperazin-1-yl}pyrazine]", "values": [{"measurement": "Ki", "setting": "[4]", "result": "< 1", "unit": "µM"}]}
{"smiles": "COc1cc(N2CCN(CC(=O)N3CCN(C(C)C)CC3)CC2)ccc1Br", "note": "[Compound 336, 1-(4-bromo-3-methoxyphenyl)-4-[2-(4-isopropylpiperazin-1-yl)-2-oxoethyl]piperazine]", "values": [{"measurement": "Ki", "setting": "[5]", "result": "< 1", "unit": "µM"}]}
{"smiles": "COc1cc(F)c(-c2ccc(N3CCN(CC(=O)N4CCN(C5CCC5)CC4)CC3)cc2)cc1F", "note": "[Compound 683, 1-cyclobutyl-4-{[4-(2′,5′-difluoro-4′-methoxybiphenyl-4-yl)piperazin-1-yl]acetyl}piperazine]", "values": [{"measurement": "Ki", "setting": "[3]", "result": "< 1", "unit": "µM"}]}
{"smiles": "O=C(OCC(=O)N1CCN(C2CCC2)CC1)N1C=CC2(CC1)c1ccccc1C(=O)N2Cc1ccccc1", "note": "(stereo not shown) [Compound 906, 2-(4-cyclobutylpiperazin-1-yl)-2-oxoethyl 2-benzyl-3-oxo-2,2′,3,3′-tetrahydro-1′H-spiro[isoindole-1,4′-pyridine]-1′-carboxylate]", "values": [{"measurement": "Ki", "setting": "[4]", "result": "< 1", "unit": "µM"}]}
{"smiles": "O=C(CN1CCN(c2ccc(-c3ccc4c(c3)OCO4)cc2)CC1)N1CCN(C2CCC2)CC1", "note": "[Compound 458, 1-[4-(1,3-benzodioxol-5-yl)phenyl]-4-[2-(4-cyclobutylpiperazin-1-yl)-2-oxoethyl]piperazine]", "values": [{"measurement": "Ki", "setting": "\"*\" in Ki of Table II, assay of Example 7, read-out: Ki", "result": "< 1", "unit": "µM"}]}
{"smiles": "CCC(C)N1CCN(C(=O)CN2CCC(N3CCCC3)CC2)CC1", "note": "(stereo not shown) [Compound 858, 1-sec-butyl-4-[(4-pyrrolidin-1-ylpiperidin-1-yl)acetyl]piperazine]", "values": [{"measurement": "Ki", "setting": "[4]", "result": "< 1", "unit": "µM"}]}
{"smiles": "CCC(C)N1CCN(C(=O)CN2CCN(c3ccc(OC)c(OC)c3)CC2)CC1", "note": "(stereo not shown) [Compound 870, 1-sec-butyl-4-{[4-(3,4-dimethoxyphenyl)piperazin-1-yl]acetyl}piperazine]", "values": [{"measurement": "Ki", "setting": "[4]", "result": "< 1", "unit": "µM"}]}
{"smiles": "COc1ccc(-c2ccc(N3CCN(CC(=O)N4CCN(C5CCC5)CC4)CC3)cc2)c(C)c1", "note": "[Compound 779, 1-cyclobutyl-4-{[4-(4′-methoxy-2′-methylbiphenyl-4-yl)piperazin-1-yl]acetyl}piperazine]", "values": [{"measurement": "Ki", "setting": "[4]", "result": "< 1", "unit": "µM"}]}
{"smiles": "COC[C@H]1CCCN1C(=O)c1ccc(N2CCN(CC(=O)N3CCN(C4CCC4)CC3)CC2)cc1", "note": "[Compound 767, 1-cyclobutyl-4-{[4-(4-{[(2R)-2-(methoxymethyl)pyrrolidin-1-yl]carbonyl}phenyl)piperazin-1-yl]acetyl}piperazine]", "values": [{"measurement": "Ki", "setting": "[3]", "result": "< 1", "unit": "µM"}]}
{"smiles": "CN(C)c1ccc(-c2ccc(N3CCN(CC(=O)N4CCN(C5CCC5)CC4)CC3)nn2)cc1", "note": "[Compound 1099, 4-(6-{4-[2-(4-cyclobutylpiperazin-1-yl)-2-oxoethyl]piperazin-1-yl}pyndazin-3-yl)-N,N-dimethylaniline]", "values": [{"measurement": "Ki", "setting": "[2]", "result": "< 1", "unit": "µM"}]}
{"smiles": "O=C(CN1CCN(c2cnc(-c3cccc(Cl)c3)cn2)CC1)N1CCN(C2CCC2)CC1", "note": "[Compound 900, 2-(3-chlorophenyl)-5-{4-[2-(4-cyclobutylpiperazin-1-yl)-2-oxoethyl]piperazin-1-yl}pyrazine]", "values": [{"measurement": "Ki", "setting": "[4]", "result": "< 1", "unit": "µM"}]}
{"smiles": "O=C(CN1CCN(c2cccc(Cl)c2Cl)CC1)N1CCN(C2CCC2)CC1", "note": "[Compound 666, 1-cyclobutyl-4-{[4-(2,3-dichlorophenyl)piperazin-1-yl]acetyl}piperazine]", "values": [{"measurement": "Ki", "setting": "[3]", "result": "< 1", "unit": "µM"}]}
{"smiles": "O=C(CCC1CCCC1)NC1CCN(CC(=O)N2CCN(C3CCC3)CC2)CC1", "note": "[Compound 1215, N-{1-[2-(4-cyclobutylpiperazin-1-yl)-2-oxoethyl]piperidin-4-yl}-cyclopentylpropanamide]", "values": [{"measurement": "Ki", "setting": "[1]", "result": "< 1", "unit": "µM"}]}
{"smiles": "CCCCCNC(=O)c1cccc(N2CCN(CC(=O)N3CCN(C4CCC4)CC3)CC2)c1", "note": "[Compound 1075, 3-{4-[2-(4-cyclobutylpiperazin-1-yl)-2-oxoethyl]piperazin-1-yl}-N-pentylbenzamide]", "values": [{"measurement": "Ki", "setting": "[2]", "result": "< 1", "unit": "µM"}]}
{"smiles": "O=C(NCC1CCCCC1)c1ccc(N2CCN(CC(=O)N3CCN(C4CCC4)CC3)CC2)cc1", "note": "[Compound 1144, 4-{4-[2-(4-cyclobutylpiperazin-1-yl)-2-oxoethyl]piperazin-1-yl}-N-(cyclohexylmethyl) benzamide]", "values": [{"measurement": "Ki", "setting": "[1]", "result": "< 1", "unit": "µM"}]}
{"smiles": "O=C1CCCc2cc(N3CCN(CC(=O)N4CCN(C5CCC5)CC4)CC3)ccc21", "note": "[Compound 1165, 6-{4-[2-(4-cyclobutylpiperazin-1-yl)-2-oxoethyl]piperazin-1-yl}-3,4-dihydronaphthalen-1(2H)-one]", "values": [{"measurement": "Ki", "setting": "[1]", "result": "< 1", "unit": "µM"}]}
{"smiles": "CCCCN1CCN(C(=O)CN2CCN(c3ccc(C(F)(F)F)cc3)CC2)CC1", "note": "[Compound 496, 1-butyl-4-({4-[4-(trifluoromethyl)phenyl]piperazin-1-yl}acetyl)piperazine]", "values": [{"measurement": "Ki", "result": "< 1", "unit": "µM"}]}
{"smiles": "CC(C)c1ccccc1-c1ccc(N2CCN(CC(=O)N3CCN(C4CCC4)CC3)CC2)cc1", "note": "[Compound 709, 1-cyclobutyl-4-{[4-(2′-isopropylbiphenyl-4-yl)piperazin-1-yl]acetyl}piperazine]", "values": [{"measurement": "Ki", "setting": "[3]", "result": "< 1", "unit": "µM"}]}
{"smiles": "CC1CN(C(=O)c2ccc(N3CCN(CC(=O)N4CCN(C5CCC5)CC4)CC3)cc2)CC(C)O1", "note": "(stereo not shown) [Compound 1095, 4-(4-{4-[2-(4-cyclobutylpiperazin-1-yl)-2-oxoethyl]piperazin-1-yl}benzoyl)-2,6-dimethylmorpholine]", "values": [{"measurement": "Ki", "setting": "[2]", "result": "< 1", "unit": "µM"}]}
{"smiles": "CCC1CCCCN1C(=O)c1ccc(N2CCN(CC(=O)N3CCN(C4CCC4)CC3)CC2)nc1", "note": "(stereo not shown) [Compound 650, 1-cyclobutyl-4-[(4-{5-[(2-ethylpiperidin-1-yl)carbonyl]pyridin-2-yl}piperazin-1-yl)acetyl]piperazine]", "values": [{"measurement": "Ki", "setting": "[3]", "result": "< 1", "unit": "µM"}]}
{"smiles": "O=C(CN1CCN(c2ccc(F)cc2)CC1)N1CCN(C2CCCCC2)CC1", "note": "[Compound 822, 1-cyclohexyl-4-{[4-(4-fluorophenyl)piperazin-1-yl]acetyl}piperazine]", "values": [{"measurement": "Ki", "setting": "[4]", "result": "< 1", "unit": "µM"}]}
{"smiles": "O=C(CN1CCN(c2ccc(-c3ccncc3)cc2)CC1)N1CCN(C2CCC2)CC1", "note": "[Compound 791, 1-cyclobutyl-4-{[4-(4-pyridin-4-ylphenyl)piperazin-1-yl]acetyl}piperazine]", "values": [{"measurement": "Ki", "setting": "[4]", "result": "< 1", "unit": "µM"}]}
{"smiles": "CCCN(CCC)C1CCN(CC(=O)N2CCN(C3CCCCC3)CC2)CC1", "note": "[Compound 441, 1-[2-(4-cyclohexylpiperazin-1-yl)-2-oxoethyl]-N,N-dipropylpiperidin-4-amine]", "values": [{"measurement": "Ki", "setting": "[5]", "result": "< 1", "unit": "µM"}]}
{"smiles": "CC(C)c1cccc(-c2ccc(N3CCN(CC(=O)N4CCN(C5CCC5)CC4)CC3)nn2)c1", "note": "[Compound 1013, 3-{4-[2-(4-cyclobutylpiperazin-1-yl)-2-oxoethyl]piperazin-1-yl}-6-(3-isopropylphenyl) pyridazine]", "values": [{"measurement": "Ki", "setting": "[2]", "result": "< 1", "unit": "µM"}]}
